2 compounds from patent US7473415B2, “Near infrared fluorescent contrast agent and method for fluorescence imaging” (Fuji Photo Film Co., Ltd., priority 2002, dated 2009) can be followed below.

The test system of the test is mouse colon carcinoma (colon 26 carcinoma). The experiment in a line: Fluorescence imaging test (Test Example 2), tumor bearing nude mice, excitation 740 nm. It is filed as in vivo. The method, then: Tumor bearing mice were prepared in the same manner as Test Example 1, and conditions for irradiation was the same as those explained in Test Example 1. Compound 5, Compound 7, and Compound 10 were used as test compounds. Each of the test compounds (0.5 mg/ml) was dissolved in physiological saline or phosphate buffer (pH 7.4) and administered to the mice via a tail vein at the dose of 5.0 mg/Kg. For comparison, the following compound (Compound B, 5 mg/kg, i.v.) was administered to the mice.
Light was generated using a tunable, pulsed, solid state laser system consisting of an optical parametric oscillator (OPO) pumped by the third harmonic of a Nd:Yag laser (Coherent Inc.). An excitation wavelength of λex=740 nm was chosen and guided with an optical fiber to the tumor bearing nude mice. The dye-specific fluorescence exitance was imaged using a filter combination (Corion) and an intensified CCD camera (Roper Scientific.) at different times after dye administration (FIG. 4). Fluorescence imagings were taken before administration, and 1 min, 10 min, 30 min, 60 min, 2 hours, 4 hours, 24 hours after intravenous dye administration via the lateral tail venous at a standard dose of 5 mg/kg. In the first 60 min, the body temperature of the animals was kept at 38° C. with heating pad. Fluorescence imaging properties of the compounds were compared in nude mice tumor models. […]

For `CC(/C=C/C=C1/N(CCC(=O)NC(CC(=O)O)C(=O)O)c2ccc3ccccc3c2C1(C)C)=C\C=C\C1=[N+](CCC(=O)NC(CC(=O)O)C(=O)O)c2ccc3ccccc3c2C1(C)C` (centres unmarked) [Compound 5], the “tumor imaging as compared to the reference compound (Compound B)” value (5.0 mg/Kg via tail vein) is reported as “clear images of tumors at a shorter time”.
Consider `CC1(C)C(/C=C/C=C/C=C/C=C2/N(CCCCS(=O)(=O)[O-])c3ccc(C(=O)NCC(O)C(O)C(O)C(O)CO)cc3C2(C)C)=[N+](CCCCS(=O)(=O)[O-])c2ccc(C(=O)NCC(O)C(O)C(O)C(O)CO)cc21.[Na+]` (centres unmarked) [Compound B], for which the “position of tumor within 1 hour after the administration” value (5 mg/kg, i.v., FIG. 8) is recorded as “not clear”.
